Reference: US10287265B2, “Enantiomers of 8-hydroxyquinoline derivatives and the synthesis thereof” (AVIDIN Co. Ltd., priority 2015, dated 2019)

Tests used:
[1] = test system: erythropoietin protein; test: Erythropoietin protein expression in hippocampus and cortex of aged animals, chronic treatment, ELISA; assay type: in vivo, mouse; settings: 18-month-old C57BL/6 female mice, 20 mg/l in drinking water for four months
Protocol: Twenty-four 18-month-old female C57BL/6 mice (Innovo Ltd., Budapest, Hungary) were treated according to the experimental setup described in Example 34. in two groups: Group 1—control group given normal drinking water, Group 2—treated with the R-enantiomer according to Example 2, administered in drinking water (20 mg/l) for four months. Brain preparation was carried out under conditions described in Example 34. Brain samples were washed with 1×PBS to remove blood, then tissues were homogenized in 1×PBS and for 3 days, they were held at −20° C. overnight and 25° C. at daytime every day. After the third round of thawing, samples were centrifuged (5 min, 5000 rpm) and the supernatant was collected for further protein expression studies. Determination of erythropoietin levels of samples was done with Quantikine® ELISA Mouse Erythropoetin (R&D Systems, cat. no.: MEPOOB) according to the manufacturer's protocol. At the end of the test, the developed colour was measured with a THERMO-LABSYSTEMS Multiskan FC Absorbance Plate Reader at 450 nm. Results obtained through ELISA and measured at 450 nm were compared to standard dilution series of purified mouse EPO. Values (pg/ml) obtained based on the dilution series were compared to actual protein content of tissues. Protein content of tissue homogenates was measured with Nanodrop-1000 adjusted for BSA protein, at 280 nm.

[2] = test system: C57BL6/J mice; test: Short-term memory impairment caused by amyloid peptide aggregates (icv Aβ oligomers), Y maze test; assay type: in vivo, mouse; settings: Y maze at day 4 post Aβ
Protocol: In vivo experiments were carried out according to the National Institute of Health guidelines for the care and use of laboratory animals, approved by the French Ministry for Research and Technology. In the course of experiments, animals were housed at a standard temperature (22±1° C.) and in a light-controlled environment (lights on from 7 a.m. to 8 p.m.) with ad libitum access to food and water. Male C57BL/6 mice (C57BL/6J Rj, ref. SC-CJ-12w-M, Janvier, France) were housed 5 animals per cage. From one week before the start of the experiment until the end of the experiment, mice were housed individually. Animals were monitored twice-a-day by laboratory personnel (8 a.m. and 4 p.m.). In this project, young (14 weeks old) as well as aged (15-16 months old) mice were used. Experiments were carried out using 12 mice per experimental group.
Investigation of short-term working memory—Y maze test Y maze tests were carried out as previously described. Prior to testing, mice were brought to the experimental room for at least 30 min to acclimatize to experimental room conditions. The Y maze is made of opaque Plexiglas and each arm is 40 cm long, 16 cm high, 9 cm wide and positioned at equal angles. The apparatus was placed in the test room in such a way that it was brightened homogeneously with 12-15 lux in the arms as well as in the central zone. One mouse at a time was placed at the end of one arm and was allowed to move in the maze freely during a 5 min examination. Each arm entry was recorded with those entries being counted where the mouse completely placed its hind paws in the chosen arm. […] Results were calculated as the percentage of the ratio of actual detected alternations to possible alternations (defined as the number of total arm entries minus 2).
For the examination of memory impairment caused by Aβ oligomers, a mouse model developed and validated by SynAging was used. […] At day 4 post Aβ treatment, short-term memory was assessed with the Y maze test. […]
At day 4 post Aβ treatment, short-term memory was assessed with the Y maze test.

[3] = test system: NF-AT (Nuclear Factor of Activated T Cells) protein; test: NF-AT transcriptional activity, β-galactosidase reporter in Jurkat cells induced by A23187 and PMA; assay type: cell-based, human
Protocol: Cells (3×10^6 cells/ml) were incubated with 10 μM compound according to Example 2 in RPMI-1640 medium (pH=7.4) for 20 min at 37° C. Following this, incubation lasted for an additional 4 h in the presence of 0.5 μM A23187 and 50 ng/ml PMA (12-O-tetradecanoylphorbol-13-acetate). Induced effects can be determined by the β-galactosidase activity of cells treated with the compound according to Example 2 and untreated cells as it catalyzes the transformation of FDG (fluorescein di-β-D-galactopyranoside) into fluorescein. Reading of results was carried out with a SpectraFluor Plus plate reader. Decrease of β-galactosidase activity was compared to the effect of 1 μM cyclosporine A which was served as a positive control.

IC50 ([3]; Homo sapiens, Jurkat cells, 0.5 μM A23187 and 50 ng/ml PMA, 4 h, read-out: half-value concentration for reduction of the transcriptional activity of NF-AT protein): 2200 nM
SMILES: Cc1ccnc(N[C@H](c2ccc(C(F)(F)F)cc2)c2ccc3cccnc3c2O)n1 [Example 2, 7-[(R)-[(4-Methylpyrimidin-2-yl)amino][4-(trifluoromethyl)phenyl]methyl]quinolin-8-ol]
EPO protein levels in hippocampal and cortical samples compared to untreated control mice [1]: induced increased EPO protein levels in both hippocampal and cortical samples
inhibition of short-term memory impairment caused by fibrillar aggregates of amyloid peptides ([2]; 4 mg/kg body weight per os once daily for four days): inhibited
inhibition of short-term memory impairment caused by fibrillar aggregates of amyloid peptides, dose dependence ([2]; 0.5, 2 and 4 mg/kg body weight per os once daily for four days): in a dose-dependent manner
inhibition of transcriptional induction regulated by NF-AT (concentration range in words) [3]: inhibits in micromolar concentration
